Test results taken from patent EP1608360B1, “SYNERGISTIC HEPATOPROTECTIVE COMPOSITION AND A METHOD THEREOF” (COUNCIL OF SCIENTIFIC AND INDUSTRIAL RESEARCH, priority 2003, dated 2004).
“And” between values parts separate entries of the source, which are not always exact repeats. Equal entries are not always repeated. Where two headings read alike, the source gives them in different places.

Columns and labels:
[1] = test system: Paracetamol (APAP) induced hepatic injury; type: in vivo; conditions: Table-2
Procedure: […] Formulation is extremely safe having a therapeutic index of > 40. No mortality was recorded upto a dose of 2g-kg-1 p.o. in mice.
Table-2: Hepatoprotective potential of Andrographolide (AP) against Paracetamol (APAP) induced hepatic injury in Rodents (prophylactic). […]

[2] = After 72 hrs; cited from earlier work
[3] = test system: paracetamol (APAP) induced hepatic injury; test: Hepatoprotective activity (in vivo) against paracetamol (APAP) induced hepatic injury in mice, prophylactic study (Table 1); conditions: 50 mg/kg p.o. + APAP
Procedure: All the list materials were administered P.O. routes in a uniform dose level of 50 mg kg-1. Formulation is extremely safe having a therapeutic index of > 40. No mortality was recorded upto a dose of 2g-kg-1 p.o. in mice.
• Fig.1 Low Power view 10 X of bridging necroses • Fig.2 High Power view 40X of bridging necroses • Fig.3 High Power view 40X of centrilobular necrosis • Fig.4 Lower Power view 10X of centrilobular necrosis • Fig.5 Effect of paracetamol on liver when given along with high doses of hepatoprotective formulations • Fig.6 Ballooning degeneration of cells along with cytoplasmic rarefaction clearing Table 1: Hepatoprotective activity (in vivo) of synergistic formulation and Silymarin agains paracetamol (APAP) induced hepatic injury in mice2. (prophylactic study)

[4] = test system: Acetaminophen (APAP) induced hepatic injury; test: Hepatoprotective activity (in vivo), pre-treatment, diethyl-ether inhalation plus Acetaminophen (APAP), prophylactic study (Table 4); set-up: species or system Mice: Swiss albino; conditions: 50 mg/kg p.o. at 72h, 48h, 24h, 1h before diethyl-ether and 1h after APAP 200mg/kg i.p.
Procedure: Table-4: Hepatoprotective activity (in vivo) of TCA and silymarin (Pre-treatment) fed at 72h, 48h, 24h, 1h before inhalation of diethyl - ether and 1h after Acetaminophen (APAP) 200mg/kg given i.p. 6h after exposure to diethyl - ether (prophylactic study).

[5] = 6.25 mg kg^-1 + APAP, prophylactic
[6] = 12.5 mg kg^-1 + APAP, prophylactic
[7] = 25 mg kg^-1 + APAP, prophylactic
[8] = 50 mg kg^-1 + APAP, prophylactic
[9] = 50 mg kg^-1 + APAP, prophylactic, listed as Andrographolide
[10] = 50 mg kg^-1 + APAP, prophylactic, listed as andrographolide
[11] = 50 mg kg^-1 only (per se), no APAP
[12] = 100 mg kg^-1 + APAP, prophylactic

SMILES: C=C1CC[C@@H]2[C@](C)(CO)[C@H](O)CC[C@@]2(C)[C@@H]1C/C=C1/C(=O)OC[C@H]1O [AP, andrographolide]
- Hepatic GSH (glutathione) [1, 5]: 2.85±0.19 µ mole GSH/g liver
- Hepatic GSH, percent hepatoprotective activity [1, 5]: (17.40) %
- Hepatic LP (lipid peroxidation) [1, 5]: 58.96±2.04 n mole MDA/g liver
- Hepatic LP, percent hepatoprotective activity [1, 5]: (10.61) %
- Hepatic Protein [1, 5]: 133.20±5.39 mg %
- Hepatic Protein, percent hepatoprotective activity [1, 5]: (6.75) %
- Serum ALP [1, 5]: 55.84±2.27 µ mole of p-nitrophenol formed /min/L
- Serum ALP, percent hepatoprotective activity [1, 5]: (18.49) %
- Serum Albumin [1, 5]: 3.10±0.08 g %
- Serum Albumin, percent hepatoprotective activity [1, 5]: (32.84) %
- Serum GOT [1, 5]: 992.69±66.36 Units
- Serum GOT, percent hepatoprotective activity [1, 5]: (14.54) %
- Serum GPT [1, 5]: 1224.99±63.65 Units
- Serum GPT, percent hepatoprotective activity [1, 5]: (20.76) %
- Serum LDH [1, 5]: 1454.48±66.02 units
- Serum LDH, percent hepatoprotective activity [1, 5]: (25.45) %
- Serum TG [1, 5]: 63.92±2.11 mg %
- Serum TG, percent hepatoprotective activity [1, 5]: (24.17) %
- Hepatic GSH (glutathione) [1, 6]: 3.78±0.19 µ mole GSH/g liver
- Hepatic GSH, percent hepatoprotective activity [1, 6]: (40.19) %
- Hepatic LP (lipid peroxidation) [1, 6]: 53.10±2.07 n mole MDA/g liver
- Hepatic LP, percent hepatoprotective activity [1, 6]: (46.23) %
- Hepatic Protein [1, 6]: 141.36±4.25 mg %
- Hepatic Protein, percent hepatoprotective activity [1, 6]: (23.52) %
- Serum ALP [1, 6]: 49.41±1.35 µ mole of p-nitrophenol formed /min/L
- Serum ALP, percent hepatoprotective activity [1, 6]: (37.13) %
- Serum Albumin [1, 6]: 3.29±0.15 g %
- Serum Albumin, percent hepatoprotective activity [1, 6]: (47.02) %
- Serum GOT [1, 6]: 816.54±47.10 Units
- Serum GOT, percent hepatoprotective activity [1, 6]: (32.07) %
- Serum GPT [1, 6]: 1051.99±46.30 Units
- Serum GPT, percent hepatoprotective activity [1, 6]: (33.12) %
- Serum LDH [1, 6]: 1255.65±61.32 units
- Serum LDH, percent hepatoprotective activity [1, 6]: (37.14) %
- Serum TG [1, 6]: 56.59±2.42 mg %
- Serum TG, percent hepatoprotective activity [1, 6]: (41.39) %
- Hepatic GSH (glutathione) [1, 7]: 4.15±0.15 µ mole GSH/g liver
- Hepatic GSH, percent hepatoprotective activity [1, 7]: (49.26) %
- Hepatic LP (lipid peroxidation) [1, 7]: 50.62±2.23 n mole MDA/g liver
- Hepatic LP, percent hepatoprotective activity [1, 7]: (51.45) %
- Hepatic Protein [1, 7]: 148.36±3.57 mg %
- Hepatic Protein, percent hepatoprotective activity [1, 7]: (37.92) %
- Serum ALP [1, 7]: 43.92±2.19 µ mole of p-nitrophenol formed /min/L
- Serum ALP, percent hepatoprotective activity [1, 7]: (53.04) %
- Serum Albumin [1, 7]: 3.32±0.15 g %
- Serum Albumin, percent hepatoprotective activity [1, 7]: (49.25) %
- Serum GOT [1, 7]: 720.76±50.62 Units
- Serum GOT, percent hepatoprotective activity [1, 7]: (41.40) %
- Serum GPT [1, 7]: 881.23±36.85 Units
- Serum GPT, percent hepatoprotective activity [1, 7]: (45.45) %
- Serum LDH [1, 7]: 1014.27±44.04 units
- Serum LDH, percent hepatoprotective activity [1, 7]: (51.34) %
- Serum TG [1, 7]: 51.68±2.73 mg %
- Serum TG, percent hepatoprotective activity [1, 7]: (52.92) %
- Hepatic GSH (glutathione) [1, 8]: 4.400±0.25 µ mole GSH/g liver
- Hepatic GSH, percent hepatoprotective activity [1, 8]: (57.35) %
- Hepatic LP (lipid peroxidation) [1, 8]: 47.90±1.93 n mole MDA/g liver
- Hepatic LP, percent hepatoprotective activity [1, 8]: (58.35) %
- Hepatic Protein [1, 8]: 155.34±3.11 mg %
- Hepatic Protein, percent hepatoprotective activity [1, 8]: (52.27) %
- Serum ALP [1, 8]: 40.18±2.03 µ mole of p-nitrophenol formed /min/L
- Serum ALP, percent hepatoprotective activity [1, 8]: (63.88) %
- Serum Albumin [1, 8]: 3.55±0.18 g %
- Serum Albumin, percent hepatoprotective activity [1, 8]: (66.41) %
- Serum GOT [1, 8]: 534.56±19.65 Units
- Serum GOT, percent hepatoprotective activity [1, 8]: (60.14) %
- Serum GPT [1, 8]: 760.73±49.35 Units
- Serum GPT, percent hepatoprotective activity [1, 8]: (54.15) %
- Serum LDH [1, 8]: 952.45±34.82 units
- Serum LDH, percent hepatoprotective activity [1, 8]: (54.97) %
- Serum TG [1, 8]: 49.22±1.78 mg %
- Serum TG, percent hepatoprotective activity [1, 8]: (58.70) %
- Hepatic GSH, percent hepatoprotective activity [1, 9]: 57.35%
- Hepatic LP, percent hepatoprotective activity [1, 9]: 58.35%
- Hepatic Protein, percent hepatoprotective activity [1, 9]: 52.27%
- Serum ALP, percent hepatoprotective activity [1, 9]: 63.88%
- Serum Albumin, percent hepatoprotective activity [1, 9]: 66.41%
- Serum GOT, percent hepatoprotective activity [1, 9]: 60.14%
- Serum GPT, percent hepatoprotective activity [1, 9]: 54.15%
- Serum LDH, percent hepatoprotective activity [1, 9]: 54.97%
- Serum TG, percent hepatoprotective activity [1, 9]: 58.70%
- Hepatic GSH, percent hepatoprotective activity [1, 10]: 57.35%
- Hepatic LP, percent hepatoprotective activity [1, 10]: 58.35% and 55.35%
- Serum ALP, percent hepatoprotective activity [1, 10]: 63.88%
- Serum Albumin, percent hepatoprotective activity [1, 10]: 66.41%
- Serum GOT, percent hepatoprotective activity [1, 10]: 60.14%
- Serum GPT, percent hepatoprotective activity [1, 10]: 54.15%
- Serum LDH, percent hepatoprotective activity [1, 10]: 54.97%
- Serum TG, percent hepatoprotective activity [1, 10]: 58.70%
- Hepatic GSH (glutathione) [1, 11]: 6.40±0.21 µ mole GSH/g liver
- Hepatic LP (lipid peroxidation) [1, 11]: 31.60±2.09 n mole MDA/g liver
- Hepatic Protein [1, 11]: 182.05±10.23 mg %
- Serum ALP [1, 11]: 27.72±2.71 µ mole of p-nitrophenol formed /min/L
- Serum Albumin [1, 11]: 3.96±0.08 g %
- Serum GOT [1, 11]: 134.92±4.25 Units
- Serum GPT [1, 11]: 126.11±3.09 Units
- Serum LDH [1, 11]: 181.02±10.29 units
- Serum TG [1, 11]: 32.29±2.31 mg %
- Hepatic GSH (glutathione) [1, 12]: 4.60±0.24 µ mole GSH/g liver
- Hepatic GSH, percent hepatoprotective activity [1, 12]: (60.29) %
- Hepatic LP (lipid peroxidation) [1, 12]: 45.30±2.08 n mole MDA/g liver
- Hepatic LP, percent hepatoprotective activity [1, 12]: (64.95) %
- Hepatic Protein [1, 12]: 146.78±5.09 mg %
- Hepatic Protein, percent hepatoprotective activity [1, 12]: (34.66) %
- Serum ALP [1, 12]: 44.14±2.24 µ mole of p-nitrophenol formed /min/L
- Serum ALP, percent hepatoprotective activity [1, 12]: (52.40) %
- Serum Albumin [1, 12]: 3.38±0.26 g %
- Serum Albumin, percent hepatoprotective activity [1, 12]: (53.73) %
- Serum GOT [1, 12]: 795.92±27.59 Units
- Serum GOT, percent hepatoprotective activity [1, 12]: (34.12) %
- Serum GPT [1, 12]: 764.37±44.32 Units
- Serum GPT, percent hepatoprotective activity [1, 12]: (53.89) %
- Serum LDH [1, 12]: 1256.05±33.97 units
- Serum LDH, percent hepatoprotective activity [1, 12]: (37.11) %
- Serum TG [1, 12]: 47.39±2.13 mg %
- Serum TG, percent hepatoprotective activity [1, 12]: (63.00) %
- excreted, mostly by urinary excretion [2]: ~90%

SMILES: CCCCCCCC/C=C/CCCCCCCCCCCCCC(=O)O [TCA, trans-tetracos-15-enoic acid]
- Hepatic Glutathione, percent hepatoprotective activity [3]: 53.15%
- Hepatic Lipid peroxidation, percent hepatoprotective activity [3]: 64.15%
- Serum ALP, percent hepatoprotective activity [3]: 82.35%
- Serum GOT, percent hepatoprotective activity [3]: 62.00%
- Serum GPT, percent hepatoprotective activity [3]: 75.00%
- Serum Triglycerides, percent hepatoprotective activity [3]: 66.45%
- Hepatic Lipid peroxidation [4]: 55.48 n moles MDA/g liver
- Serum ALP [4]: 52.96 µ mole of p-nitrophenol formed/min/ L
- Serum Bilirubin [4]: 56.35 mg %
- Serum GOT [4]: 54.92 Units
- Serum GPT [4]: 57.99 Units
- Serum Triglycerides [4]: 66.05 mg %
- Serum ALP ([4]; listed as t-tca): 52.96 µ mole of p-nitrophenol formed
